We go through 45 molecules from patent US6908919B2, “Substituted polycyclic aryl and heteroaryl pyrazinones useful for selective inhibition of the coagulation cascade” (Pharmacia Corporation, priority 1999, dated 2005).

The target in this assay is Human factor Xa (Homo sapiens, UniProt P00742). As to the kind of experiment: Xa Assay. The format is biochemical. More on the design: purchased Enzyme Research Laboratories, South Bend Ind.
Human factor Xa, sequence (P00742 41-179 limits assumed): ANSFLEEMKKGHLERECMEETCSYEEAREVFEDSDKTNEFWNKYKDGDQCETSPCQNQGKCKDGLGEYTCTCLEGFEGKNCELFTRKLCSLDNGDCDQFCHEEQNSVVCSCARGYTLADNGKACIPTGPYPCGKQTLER
Human factor Xa, sequence (P00742 235-488 limits assumed): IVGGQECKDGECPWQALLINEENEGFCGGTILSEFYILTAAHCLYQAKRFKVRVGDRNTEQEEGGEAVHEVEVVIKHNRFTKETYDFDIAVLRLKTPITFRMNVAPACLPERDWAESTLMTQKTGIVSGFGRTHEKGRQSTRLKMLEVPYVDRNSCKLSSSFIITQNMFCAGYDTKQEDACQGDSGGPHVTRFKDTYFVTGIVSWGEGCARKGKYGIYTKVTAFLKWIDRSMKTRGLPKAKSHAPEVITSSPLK

Regarding `N=C(N)c1ccc(CNC(=O)Cn2c(-c3ccccc3)c(Cl)nc(NC3CCS(=O)(=O)C3)c2=O)cc1` (stereo not drawn) [1512-19], the “% Inhibition Factor Xa (30 µM)” value (at 30 µM inhibitor) came to 3%. `CC1CCCC(Nc2nc(Cl)c(-c3ccccc3)n(CC(=O)NCc3ccc(C(=N)N)cc3)c2=O)C1C` (stereo not drawn) [1512-23]: the “% Inhibition Factor Xa (30 µM)” value (at 30 µM inhibitor) is reported as 6%. In the case of `N=C(N)c1ccc(CNC(=O)Cn2c(-c3ccccc3)c(Cl)nc(NCc3ccc(C(F)(F)F)cc3F)c2=O)cc1` [1512-26], the “% Inhibition Factor Xa (30 µM)” value (at 30 µM inhibitor) is reported as 5%.

As for `N=C(N)c1ccc(CNC(=O)Cn2c(-c3ccccc3)c(Cl)nc(NCc3cc(C(F)(F)F)ccc3F)c2=O)cc1` [1512-27], the “% Inhibition Factor Xa (30 µM)” value (at 30 µM inhibitor) was 3%. With `N=C(N)c1ccc(CNC(=O)Cn2c(-c3ccccc3)c(Cl)nc(NCc3cc(F)c(F)c(F)c3)c2=O)cc1` [1512-32], the “% Inhibition Factor Xa (30 µM)” value (at 30 µM inhibitor) was determined as 5%. Still for that read-out and setting: under `N=C(N)c1ccc(CNC(=O)Cn2c(-c3ccccc3)c(Cl)nc(NCc3cc(Cl)ccc3Cl)c2=O)cc1` [1512-35] stands 4%.

Turning to `N=C(N)c1ccc(CNC(=O)Cn2c(-c3ccccc3)c(Cl)nc(NCc3cc(F)ccc3F)c2=O)cc1` [1512-36], the “% Inhibition Factor Xa (30 µM)” value (at 30 µM inhibitor) is given as 9%. With `N=C(N)c1ccc(CNC(=O)Cn2c(-c3ccccc3)c(Cl)nc(NCc3cc(F)cc(F)c3)c2=O)cc1` [1512-39], the “% Inhibition Factor Xa (30 µM)” value (at 30 µM inhibitor) is reported as 4%. Same read-out and setting: under `N=C(N)c1ccc(CNC(=O)Cn2c(-c3ccccc3)c(Cl)nc(NCCc3cccc(C(F)(F)F)c3)c2=O)cc1` [1512-41] stands 4%; under `N=C(N)c1ccc(CNC(=O)Cn2c(-c3ccccc3)c(Cl)nc(NCc3ccccc3OC(F)(F)F)c2=O)cc1` [1512-42], 1%; under `N=C(N)c1ccc(CNC(=O)Cn2c(-c3ccccc3)c(Cl)nc(NCc3c(F)cccc3F)c2=O)cc1` [1512-43], 9%.

Turning to `CN1CCCC1CCNc1nc(Cl)c(-c2ccccc2)n(CC(=O)NCc2ccc(C(=N)N)cc2)c1=O` (stereo not drawn) [1512-46], the “% Inhibition Factor Xa (30 µM)” value (at 30 µM inhibitor) came out at 10%. For `N=C(N)c1ccc(CNC(=O)Cn2c(-c3ccccc3)c(Cl)nc(NCCc3ccccn3)c2=O)cc1` [1512-47], the “% Inhibition Factor Xa (30 µM)” value (at 30 µM inhibitor) came out at 13%. With `N=C(N)c1ccc(CNC(=O)Cn2c(-c3cccc(N)c3)c(Cl)nc(NCCN3CCCC3)c2=O)cc1` [1543-03], the “% Inhibition Factor Xa (30 µM)” value (at 30 µM) is listed as 34%. `CNc1nc(Cl)c(-c2cccc(N)c2)n(CC(=O)NCc2ccc(C(=N)N)cc2)c1=O` [1543-05]: the “% Inhibition Factor Xa (30 µM)” value (at 30 µM) turned out to be 14%. Turning to `N=C(N)c1ccc(CNC(=O)Cn2c(-c3cccc(N)c3)c(Cl)nc(NCCCn3ccnc3)c2=O)cc1` [1543-07], for the setting “at 30 µM”, the “% Inhibition Factor Xa (30 µM)” value came to 19%.

With `CN(C)CCNc1nc(Cl)c(-c2cccc(N)c2)n(CC(=O)NCc2ccc(C(=N)N)cc2)c1=O` [1543-09], for the setting “at 30 µM”, the “% Inhibition Factor Xa (30 µM)” value amounted to 12%. Still for that read-out and setting: under `N=C(N)c1ccc(CNC(=O)Cn2c(-c3cccc(N)c3)c(Cl)nc(NCCCO)c2=O)cc1` [1543-13] stands 12%; under `N=C(N)c1ccc(CNC(=O)Cn2c(-c3cccc(N)c3)c(Cl)nc(NCCN3CCCCC3)c2=O)cc1` [1543-15], 41%; under `CC(CNc1nc(Cl)c(-c2cccc(N)c2)n(CC(=O)NCc2ccc(C(=N)N)cc2)c1=O)N(C)C` (stereo not drawn) [1543-19], 11%. Take `N=C(N)c1ccc(CNC(=O)Cn2c(-c3cccc(N)c3)c(Cl)nc(NCCCCN3CCCC3)c2=O)cc1` [1543-21]: the “% Inhibition Factor Xa (30 µM)” value (at 30 µM) was 27%. Still for that read-out and setting: under `N=C(N)c1ccc(CNC(=O)Cn2c(-c3cccc(N)c3)c(Cl)nc(NCCCN3CCCC3)c2=O)cc1` [1543-27] stands 27%; under `CCNc1nc(Cl)c(-c2cccc(N)c2)n(CC(=O)NCc2ccc(C(=N)N)cc2F)c1=O` [1543-31], 8%; under `N=C(N)c1ccc(CNC(=O)Cn2c(-c3cccc(N)c3)c(Cl)nc(NC3CC3)c2=O)c(F)c1` [1543-33], 14%. For the molecule `N=C(N)c1ccc(CNC(=O)Cn2c(-c3cccc(N)c3)c(Cl)nc(NC3CCCC3)c2=O)c(F)c1` [1543-34], the “% Inhibition Factor Xa (30 µM)” value (at 30 µM) was determined as 20%. Take `CCCNc1nc(Cl)c(-c2cccc(N)c2)n(CC(=O)NCc2ccc(C(=N)N)cc2F)c1=O` [1543-35]: the “% Inhibition Factor Xa (30 µM)” value (at 30 µM) is recorded as 8%. Consider `CCCCNc1nc(Cl)c(-c2cccc(N)c2)n(CC(=O)NCc2ccc(C(=N)N)cc2F)c1=O` [1543-36], for which the “% Inhibition Factor Xa (30 µM)” value (at 30 µM) was determined as 15%. Consider `CC(C)CNc1nc(Cl)c(-c2cccc(N)c2)n(CC(=O)NCc2ccc(C(=N)N)cc2F)c1=O` [1543-38], for which the “% Inhibition Factor Xa (30 µM)” value (at 30 µM) was 14%. For `N=C(N)c1ccc(CNC(=O)Cn2c(-c3cccc(N)c3)c(Cl)nc(NC3CCC3)c2=O)c(F)c1` [1543-39], the “% Inhibition Factor Xa (30 µM)” value (at 30 µM) is on record as 14%. Turning to `CC(C)Nc1nc(Cl)c(-c2cccc(N)c2)n(CC(=O)NCc2ccc(C(=N)N)cc2F)c1=O` [1543-40], the “% Inhibition Factor Xa (30 µM)” value (at 30 µM) was found to be 10%. As for `N=C(N)c1ccc(CNC(=O)Cn2c(-c3ccccc3)c(Cl)nc(NCCc3ccncc3)c2=O)cc1` [Example 19], the “% Inhibition Factor Xa (30 µM)” value (at 30 µM inhibitor) is reported as 22% @ 30. Same read-out and setting: as for `N=C(N)c1ccc(CNC(=O)Cn2c(-c3cccc(Cl)c3)c(Cl)nc(NCc3ccccc3)c2=O)cc1` [Example 23], the figure is 38% @ 30. With `N=C(N)NC/C=C\CNC(=O)Cn1c(-c2ccccc2)cnc(NCCc2ccccc2)c1=O` [Example 37], for the setting “at 30 µM inhibitor”, the “% Inhibition Factor Xa (30 µM)” value is on record as 0%.

In the case of `Nc1n[nH]c2ccc(CNC(=O)Cn3c(-c4ccccc4)cnc(NCCc4ccccc4)c3=O)cc12` [Example 38], the “% Inhibition Factor Xa (30 µM)” value (at 30 µM inhibitor) came to 22%. `Nc1n[nH]c2cc(CNC(=O)Cn3c(-c4ccccc4)cnc(NCCc4ccccc4)c3=O)ccc12` [Example 39]: the “% Inhibition Factor Xa (30 µM)” value (at 30 µM inhibitor) is listed as 0%. As to `N=C(N)c1ccc(CNC(=O)Cn2c(-c3cccc(N)c3)c(Cl)nc(NC3CCC3)c2=O)cc1F` [Example 40], the “% Inhibition Factor Xa (30 µM)” value (at 30 µM inhibitor) came out at 0%. As to `CC(C)Nc1nc(Cl)c(-c2cccc(N)c2)n(CC(=O)NCc2ccc(C(=N)N)c(F)c2)c1=O` [Example 42], the “% Inhibition Factor Xa (30 µM)” value (at 30 µM inhibitor) worked out at 0%. Same read-out and setting: under `CC(C)Nc1ncc(-c2cccc(N)c2)n(CC(=O)NCc2ccc(C(=N)N)c(F)c2)c1=O` [Example 43] stands 0%; under `CC(C)Nc1nc(Cl)c(-c2cccc(N)c2)n(CC(=O)NCCc2ccc(C(=N)N)cc2)c1=O` [Example 62], 10%; under `COC(=O)c1cccc(-c2c(Cl)nc(NC(C)C)c(=O)n2CC(=O)NCc2ccc(C(=N)N)cc2)c1` [Example 64], 19%. As to `CC(C)Nc1nc(Cl)c(-c2cccc(C(=O)O)c2)n(CC(=O)NCc2ccc(C(=N)N)cc2)c1=O` [Example 65], the “% Inhibition Factor Xa (30 µM)” value (at 30 µM inhibitor) was 12%. Take `N=C(N)c1ccc(CNC(=O)Cn2c(-c3ccccc3O)c(Cl)nc(NC3CCC3)c2=O)cc1` [Example 66]: the “% Inhibition Factor Xa (30 µM)” value (at 30 µM inhibitor) amounted to 0%. Regarding `CC(C)Nc1nc(Cl)c(-c2cc(N)ccc2F)n(CC(=O)NCc2ccc(C(=N)N)cc2F)c1=O` [Example 73], under “at 30 µM inhibitor”, the “% Inhibition Factor Xa (30 µM)” value worked out at 0%. Regarding `CC(C)Nc1nc(Cl)c(-c2ccc(Cl)nc2)n(CC(=O)NCc2ccc(C(=N)N)cc2F)c1=O` [Example 74], the “% Inhibition Factor Xa (30 µM)” value (at 30 µM inhibitor) is on record as 13%.

As for `CC(C)Nc1nc(Cl)c(-c2cccnc2)n(CC(=O)NCc2ccc(C(=N)N)cc2)c1=O` [Example 75], the “% Inhibition Factor Xa (30 µM)” value (at 30 µM inhibitor) is reported as 9%.
